Literature values as cited in article PMC9332635 (Journal of Food and Drug Analysis, 2017).

Columns and labels:
[1] = method validation study of isosteviol
[2] = test system: HBsAg secretion in HBV-transfected cell-lines

| Long-term stability [1] [days] | IC50 for inhibiting HBsAg secretion [2] [µg/mL] | Structure (SMILES) |
| --- | --- | --- |
| 61 |  | C[C@@]12CC[C@@H]3[C@@](CC[C@H]4[C@@]3(C)CCC[C@@]4(C)C(=O)O)(CC1=O)C2 [isosteviol] |
|  | 49.13 | Nc1ccn([C@@H]2CS[C@H](CO)O2)c(=O)n1 [lamivudine] |
